Test results as given in ChEMBL document CHEMBL1201862, “PubChem BioAssay data set” (2004).
Where a name gives a salt, the structure may show the parent alone. Active and inactive are the calls of the source. Rule as the data show it, for most assays here: actives have a measured EC50 and inactives only a lower limit.

Assays:
[1] = biological target: T1, Heat shock factor protein 1 (Mus musculus, UniProt P38532); assay: decrease of HSF1-responsive luciferase luminescence – cell-based, NIH3T3, dose retest, confirmation (AID 2382); assay type: functional;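 also: NIH3T3 fibroblasts with HSF1-driven luciferase reporter stressed by proteasome inhibitor MG132; luminescence from HSF1-driven luciferase expression after 8 hours of MG132 stress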
T1 sequence (P38532 whole entry): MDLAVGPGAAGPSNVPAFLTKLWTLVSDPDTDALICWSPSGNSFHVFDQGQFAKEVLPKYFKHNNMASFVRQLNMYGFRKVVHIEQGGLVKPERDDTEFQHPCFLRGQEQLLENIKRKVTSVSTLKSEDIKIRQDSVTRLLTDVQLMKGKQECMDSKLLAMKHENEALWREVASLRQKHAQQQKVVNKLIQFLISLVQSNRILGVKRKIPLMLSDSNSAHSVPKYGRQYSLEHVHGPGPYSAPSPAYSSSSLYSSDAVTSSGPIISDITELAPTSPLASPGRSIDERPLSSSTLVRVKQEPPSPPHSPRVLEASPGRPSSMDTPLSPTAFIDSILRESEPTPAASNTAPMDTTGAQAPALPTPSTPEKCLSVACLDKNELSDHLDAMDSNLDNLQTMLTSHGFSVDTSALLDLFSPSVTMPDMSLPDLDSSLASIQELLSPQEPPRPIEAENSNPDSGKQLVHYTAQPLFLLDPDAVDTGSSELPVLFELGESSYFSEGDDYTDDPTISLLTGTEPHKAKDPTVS

[2] = viability of uninfected HEp-2 cells – cell-based, HTS, cytotoxicity control for RSV inhibitor project, dose response (AID 2410); assay type: functional; details: human respiratory syncytial virus
[3] = NIH-3T3 fibroblast cytotoxicity, dose response, cytotoxicity control, cell-based, fluorescence, Alamar Blue, secondary assay (AID 2327); assay type: functional;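 also: NIH-3T3 mouse fibroblasts cultured with fluconazole at 8 µg/mL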
[4] = fluconazole-exposed Candida albicans growth modulators – fluorescence, retest, confirmation (AID 2467); assay type: functional, cell-based
[5] = Luminescence Cell-Based Dose Retest to Confirm Inhibitors of Cancer Stem Cells. [Related pubchem assays (depositor defined):AID2717, AID2721]; assay type: functional; details: Homo sapiens
[6] = Trypanosoma cruzi growth suppression in host cells – NIH3T3 host cells, beta-gal luminescence, confirmation (AID 2044); assay type: functional, cell-based;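 also: intracellular parasites grown in NIH/3T3 mouse fibroblasts as host cells; luminescent beta-galactosidase reporter signal from transgenic T. cruzi replicating inside host cells; inhibitors lower the luminescence signal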
[7] = NIH3T3 cell viability loss – ATP luminescence, mouse fibroblasts, counter-screen, dose response (AID 2010); assay type: functional, cell-based;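 also: cells exposed to compound for about 90 hours before reading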
Streptococcus = assay: GAS UMAA2166 growth inhibition – luminescence, BacTiterGlo, counter-screen for streptokinase expression inhibitor project, dose response (AID 1915); assay type: functional, organism-based;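 also: potency for reduction of bacterial viability or growth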
[8] = tested on: Streptococcus sp. 'group A'; assay: Streptococcus pyogenes SK(-)GAS viability under kanamycin – luminescence, BacTiterGlo, confirmation, counter-screen for streptokinase expression inhibitor project, dose response (AID 1900); assay type: functional, organism-based
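For AC50 in this document: cells exposed to compound for roughly 70 hours or longer before luminescence read.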

With `COc1ccc(NC(=O)CN2C(=O)COc3ccc(S(=O)(=O)N4CCOCC4)cc32)c(OC)c1` the EC50 [1] was > 195 µM (not active).
For `O=C(Nc1ccsc1C(=O)O)c1cccc(Oc2ccccc2)c1`, the CC50 [2] was 18.3 µM (active).
For `CCN=C(S)NNC(=O)c1cc(-c2cccc(C)c2)nc2ccccc12`, the EC50 [3] was 20.2 µM (inconclusive) and the EC50 [4] was 2.5 µM (active).
With `CC(=O)Oc1c(Cl)cc(Cl)cc1/C=C/c1ccc2ccccc2n1` the AC50 [5] was 1.81 µM (active).
In the case of `COc1ccccc1C(=O)Nc1ccccc1N1CCN(C(=O)c2ccc(Cl)cc2)CC1`, the CC50 [2] is reported as 26.5 µM (active).
For `COc1cccc(CN(C(=O)Cc2c[nH]c3ccccc23)C(C(=O)NC2CCCCC2)c2cccs2)c1` (centres undefined), the EC50 [6] was 1.98 µM (active) and the EC50 [7] was > 60 µM (not active).
In the case of `O=C(Nc1ccc(Cl)cc1)N1CCCN(c2ccc(C(F)(F)F)cc2[N+](=O)[O-])CC1`, the AC50 [5] is reported as 4.79 µM (active).
For `CNC(=O)c1ccc2c(c1)nnn2C`, the EC50 [3] was 58.7 µM (active) and the EC50 [4] was > 38 µM (not active).
With `CC(=S)/C=C1\Sc2ccccc2N1C` the EC50 [6] was 0.739 µM (active), the EC50 [7] was > 60 µM (not active) and the EC50 [3] was > 150 µM (inactive). For the same compound, the EC50 [4] was 1.9 µM (active).
In the case of `NS(=O)(=O)c1ccc(CCNCC#Cc2ccccc2)cc1`, the EC50 [1] is reported as > 195 µM (not active).
With `O=C(NC1CCCCC1)C1CCN(c2nccs2)CC1` the EC50 [1] was > 195 µM (not active).
With `COc1cc(NS(=O)(=O)c2ccc(NC(=S)NC(=O)/C=C/c3ccc(OC)c(OC)c3)cc2)ncn1` the EC50 [1] was > 195 µM (not active).
For `CO/N=C/c1ccc(N2CCN(C(=O)c3ccc(C)cc3)CC2)c([N+](=O)[O-])c1`, the EC50 [3] was > 160 µM (inactive) and the EC50 [4] was > 38 µM (not active).
For `CCN(c1ccccc1)S(=O)(=O)c1cccc(C(=O)NCC(c2cccs2)N2CCOCC2)c1` (centres undefined), the AC50 [5] was > 195 µM (inactive).
In the case of `CNC(=S)N/N=C/c1ccc(-c2ccc(Cl)c([N+](=O)[O-])c2)o1`, the EC50 [3] is reported as > 150 µM (inconclusive) and the EC50 [4] is reported as > 38 µM (not active).
With `Cc1cc(C)c2nc(O)c(CN(Cc3cccs3)C(S)=NCc3ccco3)cc2c1` the AC50 [5] was 61.4 µM (active).
With `O=C(NCc1ccccc1)C1CCCN(S(=O)(=O)c2cccc3nsnc23)C1` (centres undefined) the EC50 [1] was > 195 µM (not active).
For `COc1ccc(S(=O)(=O)NCC(c2cccnc2)N2CCN(Cc3ccccc3)CC2)cc1` (centres undefined), the EC50 [6] was 1.58 µM (active) and the EC50 [7] was > 60 µM (not active).
For `COc1cccc(-c2ccc(SCC(=O)c3ccccc3)nn2)c1`, the CC50 [2] was 35.2 µM (active).
With `NC(=O)c1c(NC(=O)c2ccncc2)sc2c1CCCC2` the EC50 [3] was > 150 µM (inactive) and the EC50 [4] was 2.12 µM (active).
For `Cc1nn(-c2ccccc2)c(Cl)c1/C=C1\C(=O)N(C)C(=S)N1C`, the CC50 [2] was 26.6 µM (active).
With `O=C(NC(=S)NCCc1ccccc1)C1CCCCC1` the AC50 [5] was 10.6 µM (active).
In the case of `O=C(c1ccc([N+](=O)[O-])s1)N1CCN(c2ccccc2)CC1`, the EC50 [6] is reported as 0.808 µM (active) and the EC50 [7] is reported as > 60 µM (not active).
In the case of `COc1ccc(-n2nc(C(=O)NCC(=O)NCc3ccccc3OC)c3ccccc3c2=O)c(OC)c1`, the EC50 [1] is reported as > 195 µM (not active).
With `CC(=O)Nc1ccc(S(=O)(=O)NCc2ccc(C(=O)NCc3ccc4c(c3)OCO4)cc2)cc1` the EC50 [1] was > 195 µM (not active).
With `CCC(=O)N1CCN(c2cc(N3CCN(C)CC3)c(F)cc2[N+](=O)[O-])CC1` the EC50 [6] was 0.765 µM (active) and the EC50 [7] was > 60 µM (not active).
For `COC(=O)c1c(C)nc(O)nc1SCc1cccc2ccccc12`, the CC50 [2] was > 50 µM (active).
With `CCN(CC)CCOC(=O)c1ccc(N)cc1` [PROCAINE HYDROCHLORIDE] the EC50 [1] was > 195 µM (not active).
In the case of `O=C(c1ccc(C(=O)N2CCN(c3ccccc3F)CC2)nc1)N1CCN(c2ccccc2F)CC1`, the EC50 [3] is reported as > 160 µM (inactive) and the EC50 [4] is reported as > 38 µM (not active).
With `Cc1ccsc1/C=C1\C(=O)NC(=S)N(C)C1=O` the EC50 [1] was > 195 µM (not active).
With `COc1ccc(C2NC(S)=NC3=C2CCc2cc(OC)ccc23)cc1` (centres undefined) the CC50 [2] was 26.4 µM (active).
In the case of `Cc1cc(NC(=O)CSc2nnc(C)n2C)no1`, the EC50 [1] is reported as > 195 µM (not active).
With `C[C@@H](O)[C@H]1C(=O)N2C(C(=O)O)=C(S[C@@H]3CN[C@H](C(=O)N(C)C)C3)[C@H](C)[C@H]12` [MEROPENEM] the EC50 (Streptococcus) was 1.15 µM (active) and the EC50 [8] was 0.153 µM (active).
For `CCCCC1SC(N/N=C/c2ccco2)=NC1=O` (centres undefined), the EC50 [3] was > 150 µM (inactive) and the EC50 [4] was 5.08 µM (active).
